{"source": "patent US10478437B2", "about": "“Combination therapy to enhance the anticancer efficacy of platinum drugs” (University of Pittsburgh-of the Commonwealth System of …, priority 2014, dated 2019)", "key": {"A2780cis cells": {"test_system": "A2780cis cells", "assay": "Western blot of caspase/PARP cleavage, Noxa induction, RPA32 and H2AX phosphorylation", "type": "cell-based, human", "details": "compound 20 μM + cisplatin 20 μM", "experimental": "(§1) Whole cell lysate was prepared by lysing cells in cell lysis buffer (Cell signaling technology) containing complete protease inhibitor (Roche). Cell lysates were then cleared at 15,000 rpm for 15 min at 4° C. The protein content was quantified using a Bio-Rad Protein Assay kit (Bio-Rad Laboratories, Hercules, Calif.). The equal amount of protein was separated on Tris-glycine gels (Invitrogen). The separated proteins were blotted onto a polyvinylidene difluoride membrane and blocked overnight at 4° C. in phosphate-buffered saline containing 0.1% Tween 20 and 10% nonfat dry milk (blocking buffer). Membranes were incubated with primary antibodies in blocking buffer overnight at 4° C. Primary antibodies used were: β-actin from Sigma; Bax, Bak, Caspase-9 and cleaved Caspase-3 from Cell Signaling Technology; phospho-Histone H2AX (Ser 139) and Noxa from Millipore. Membranes were then washed and incubated in peroxidase conjugated anti-rabbit IgG (Sigma) or anti-mouse IgG (Sigma) secondary antibody for 1 h at room temperature. Membranes were developed using SuperSignal West Femto Maximum Sensitivity Substrate (Thermo Fisher Scientific).\nA2780cis cells were treated with cisplatin alone, compounds alone or in combination with cisplatin at indicated concentrations for 20 h to analyze apoptotic cell death in response to treatment. […] Expression and cleavage of several major caspases (Caspase-8, Caspase-9 and Caspase-3), as well as poly(ADP-ribose) polymerase (PARP) and NOXA. A2780cis cells were treated with cisplatin (20 μM) alone, compounds (20 μM) alone or in combination with cisplatin for 20 h.\nTo determine the effects of the compounds on DNA damage and mitochondrial dysfunction, A2780cis cells were treated with cisplatin (20 μM) alone or the combination of cisplatin with 20 μM of compound 1-6. Replication protein A (RPA) is a single strand-specific DNA-binding protein, consisting of three subunits, RPA70, RPA32, and RPA14. RPA32 is phosphorylated in response to DNA replication stress. Western blot analysis was performed to evaluate the phosphorylation of RPA32 and histone H2AX, the induction of Noxa expression and cleavage of caspase-3. […] A2780cis cells were treated with cisplatin (50 μM) alone, 1-6 (50 μM) alone or the combination of cisplatin and compound 1-6 for 4 h. The oxygen consumption rate (OCR) was measured by a Seahorse extracellular flux analyzer."}, "[1]": {"test_system": "PEO4, SKOV3, H1299, MDA-MB-231, Ca133 cells", "assay": "Western blot of PARP and Caspase-3 cleavage in other cisplatin-resistant cancer cells", "type": "cell-based, human", "details": "20 h, FIG. 9, in words", "experimental": "FIG. 9. The combination of cisplatin and compound 1-6 triggers extensive apoptosis in various types of cisplatin- and multidrug-resistant tumor cells. Cisplatin-resistant cancer cells PEO4 (ovarian), SKOV3 (ovarian), H1299 (lung), MDA-MB-231 (breast), Ca133 (head & neck) were treated with DMSO (untreated), cisplatin (20 μM) alone, compound 1-6 (20 μM) alone, or the combination for 20 h. Cleavage of PARP and Caspase-3 were determined by western blot.\nas §1\nTo evaluate whether the synergistic effects of the disclosed compounds and cisplatin could be extended to other types of cancer cells, breast cancer cells (MDA-MB-231), non-small cell lung carcinoma cells (H-1299), ovarian cancer cells (PEO4 and SKOV3) and head and neck cancer cells (Ca133) were treated with various combinations of cisplatin and compound 1-6 and analyzed for Caspase-3."}, "[2]": {"test_system": "Bax/Bak wildtype (WT) and double knockout (DKO) MEF cells", "assay": "Western blot of Caspase-8, 9 and 3 cleavage in Bax/Bak WT and DKO cells", "type": "cell-based, mouse", "details": "compound 20 μM + cisplatin 10 μM, 20 h, FIG. 8C; in words", "experimental": "as §1\nIn order to understand the role of Bax and Bak in the efficacy of cisplatin and compound 1-6, Bax/Bak double knockout (DKO) SV40-transformed MEF cells were used. […] The cleavage of Caspase-8, 9, and 3 were determined by western blot."}, "[3]": {"test_system": "cisplatin-resistant ovarian cancer cell line A2780cis", "assay": "Caspase-3/7 activity assay (apoptotic cell death), compound alone or with cisplatin", "type": "cell-based, human", "details": "for caspase-3/7 activity (Lum) with compound and cisplatin (20 μM) / caspase-3/7 activity (Lum) with compound alone: Table 6; for caspase-3/7 activity (Lum) with compound alone: untreated cells 9 ± 1", "in_short": "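Caspase-3/7 activity in A2780cis cells treated with compound alone or with cisplatin, luminescent Caspase-Glo 3/7 read-out. Apoptotic morphology is checked microscopically just before measurement.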"}}, "note": "Entries after “also recorded” stand apart in the source; their conditions may differ."}
{"smiles": "CCOCCCn1c(=S)[nH]c2c(C)cccc2c1=O", "note": "[Compound 1-6]", "values": [{"measurement": "cleavage of caspases and PARP, induction of Noxa in combination with cisplatin", "setting": "A2780cis cells; 20 h, FIG. 7B, in words", "result": "cleavage of Caspase-8, 9, 3, PARP and the induction of Noxa"}, {"measurement": "time of enhanced phosphorylation of RPA32 post treatment, combination with cisplatin", "setting": "A2780cis cells; FIG. 8A", "result": "≤ 4", "unit": "h"}, {"measurement": "cell death after single compound exposure", "setting": "[1]; 20 μM alone", "result": "minimal effect in inducing cell death"}, {"measurement": "cleavage of Caspase 3 and PARP, combination with cisplatin", "setting": "[1]; compound 20 μM + cisplatin 20 μM", "result": "cleavage of Caspase 3 and PARP was observed"}, {"measurement": "cleavage of caspases in Bax/Bak WT and DKO MEF cells, combination with cisplatin", "setting": "[2]", "result": "cleavage of Caspase 3 and 9 independent of Bax or Bak activity"}, {"measurement": "activation of Caspase-3/7 in combination with cisplatin compared to mdivi-1", "setting": "[3]; FIG. 7A and Table 6, in words", "result": "more effective; also recorded: more potent than mdivi-1"}, {"measurement": "caspase-3/7 activity (Lum), compound with cisplatin", "setting": "[3]; Table 1, compound 20 μM with 20 μM cisplatin, 20 h", "result": "145 ± 6", "unit": "Lum"}, {"measurement": "caspase-3/7 activity (Lum), compound alone", "setting": "[3]; Table 1, compound 20 μM, 20 h, mean ± S.D. of triplicates", "result": "12 ± 0", "unit": "Lum"}, {"measurement": "caspase-3/7 activity (Lum), compound alone", "setting": "[3]; Table 2, compound 20 μM, 20 h", "result": "12 ± 0", "unit": "Lum"}, {"measurement": "caspase-3/7 activity (Lum) with compound and cisplatin (20 μM)", "setting": "[3]; compound 5 μM + cisplatin 20 μM, 20 h", "result": "22 ± 1", "unit": "Lum"}, {"measurement": "caspase-3/7 activity (Lum) with compound alone", "setting": "[3]; compound 5 μM, 20 h", "result": "10 ± 1", "unit": "Lum"}, {"measurement": "caspase-3/7 activity (Lum) with compound and cisplatin (20 μM)", "setting": "[3]; compound 10 μM + cisplatin 20 μM, 20 h", "result": "67 ± 3", "unit": "Lum"}, {"measurement": "caspase-3/7 activity (Lum) with compound alone", "setting": "[3]; compound 10 μM, 20 h", "result": "10 ± 1", "unit": "Lum"}, {"measurement": "caspase-3/7 activity (Lum) with compound and cisplatin (20 μM)", "setting": "[3]; compound 20 μM + cisplatin 20 μM, 20 h", "result": "105 ± 7", "unit": "Lum"}, {"measurement": "caspase-3/7 activity (Lum) with compound alone", "setting": "[3]; compound 20 μM, 20 h", "result": "11 ± 2", "unit": "Lum"}, {"measurement": "activity in the screen (Caspase-3/7 activity and microscopic examination), active / inactive", "setting": "[3]; alone or in the presence of cisplatin, in words", "result": "active"}, {"measurement": "Caspase-3/7 activity upon combination with cisplatin compared to cisplatin alone or compound alone", "setting": "[3]; in words", "result": "increase in Caspase-3/7 activity"}]}
